Source: article PMC3479105, “K-134, a Phosphodiesterase 3 Inhibitor, Prevents Brain Damage by Inhibiting Thrombus Formation in a Rat Cerebral Infarction Model” (PLoS ONE, 2012)
Where two headings read alike, the source gives them in different places. Marks after values point to notes of the source that are not given here.

Legend:
[1] = tested on: photothrombotic middle cerebral artery (MCA) occlusion; assay: Photothrombotic MCA occlusion time in rat stroke model; type: in vivo; details: SD rats, n = 12, control 4.1±0.4 min
Protocol: (§1) Brain infarction was produced by photothrombotic MCA occlusion essentially as reported previously. K-134 and cilostazol were administered to SD rats 2 h and 3 h before irradiation for MCA occlusion, respectively (n = 12), because K-134 reached plasma peak levels at 1–2 h, and cilostazol and its active metabolites (OPC-13015 and OPC-13213) reached at >3 h (Table S1) after oral administration in conscious male SD rats under fed conditions. Rats were anesthetized by intraperitoneal administration of 50 mg/kg of sodium pentobarbital (Kyoritsu Pharmaceutical Co., Ltd., Nara, Japan). Then, a polyethylene catheter for administration of rose bengal was placed in the left femoral vein. Rats were mounted on a brain stereotactic apparatus, and body temperature was maintained at 37°C with a heating pad. The left temporalis muscle was partially cut after incision of the scalp, and craniotomy was performed using a dental drill under an operating microscope. The fiber of a xenon lamp (Model L-4887; Hamamatsu Photonics Co., Ltd., Shizuoka, Japan) was placed on the MCA for irradiation (wavelength: 540 nm, 800000 lux), and the probe of the laser Doppler flow meter (ALF21R; Advance Co., Ltd., Tokyo, Japan) was placed on the MCA distal to the fiber. After 2 min of irradiation, rose bengal (25 mg/kg/mL; Sigma Aldrich Co., MO, USA) was injected for the next 2 min. The MCA was continuously irradiated for 8 min. Blood flow was measured for 18 min from the commencement of irradiation. The MCA occlusion time was determined from blood flow data. When blood flow continued beyond the observation period, the occlusion time was regarded as 16 min. After surgery, the incision site was closed with sutures, and rats were returned to their cages.

[2] = tested on: photothrombotic cerebral infarction model; assay: Infarct volume 24 h after photothrombotic MCA occlusion; type: in vivo, rat; details: for infarct volume: 24 h after MCA occlusion, control 131.4±18.9 mm^3; for bleeding in the cerebrum observed macroscopically: rats treated with K-134 and cilostazol in photothrombotic stroke model
Protocol: as §1
Twenty-four hours after MCA occlusion, rats were sacrificed by an overdose of pentobarbital and cutting an abdominal vein. The brain was immediately removed, cooled with cold spray (Pip Co., Ltd., Osaka, Japan), and cut into six slices (2 mm thick) using a slicer (RBSC-02; Neuro Science Inc., Tokyo, Japan) and razor (FA-10; Feather Razor, Co., Ltd., Osaka, Japan). The cutting base point (0 mm) was set at the position of bregma, and brains were cut at −2, −4, 0, +2, +4, +6, +8 mm from the base point. The brain slices were stained with 1% (w/v) 2,3,5-triphenyl-2H-tetrazolium chloride (TTC; Tokyo Chemical Industry Co., Ltd., Tokyo, Japan) in saline solution at 37°C for 20 min. The stained slices were photographed with a digital camera (CAMEDIA E-10; Olympus Co., Ltd., Tokyo, Japan). Whole brain areas and infarcted areas were quantified by image analysis (Win ROOF; Mitani Co., Ltd., Tokyo, Japan), and infarct volume were calculated with the trapezoidal rule.

rat platelet aggregation = assay: Rat platelet aggregation in vitro (PRP, aggregometer); type: cell-based
Protocol: (§2) Platelet-rich plasma (PRP) was prepared by centrifugation (900 rpm, 15 min, at room temperature) of blood (05PR-22 centrifuge with a 03 rotor; Hitachi, Ltd., Tokyo, Japan), and the platelet count was adjusted to 5×10^5/µL with platelet-poor plasma prepared by centrifugation (3000 rpm, 10 min, at room temperature). PRP was incubated with antiplatelet agents at 37°C for 3 min and stimulated with collagen (final concentration, 15 µg/mL; MC Medical Inc., Tokyo, Japan) or adenosine diphosphate (ADP) (final concentration, 7.5 µM; MC Medical Inc.) (n = 5). Platelet aggregation was quantified by measuring the area under the curve (AUC) during the 5-min period after addition of trigger using a light transmittance aggregometer (PAM-8C; Mebanix Co., Ltd., Tokyo, Japan).

[3] = tested on: mouse platelet aggregation; assay: Mouse platelet aggregation in vitro (PRP, aggregometer); type: cell-based
Protocol: as §2

[4] = tested on: arteriovenous shunt thrombus formation; assay: Arteriovenous shunt thrombosis model; type: in vivo, rat; details: for Occluded/Total: n = 12, control 11/12; for Occlusion (%): control 92; for ED50: Rattus norvegicus, rats, single oral dose 90 min before creation of the arteriovenous shunt, read-out: ED50, incidence of occlusive shunt thrombi
Source text: (§3) Immediately after a single oral administration of the test compound, SD rats were anesthetized by subcutaneous injection of 1.2 g/kg of urethane (n = 12). Ninety minutes after oral administration of a single dose of K-134 or cilostazol, one end of a polyethylene catheter (size 3, 24 cm; Hibiki, Tokyo, Japan) filled with physiological saline was inserted into the left jugular vein, with the other end of the catheter inserted into the right common carotid artery to create a loop. The end of the catheter was removed from the jugular vein 4 h after creation of the loop. A thrombus was then regarded to have been formed when blood no longer ran from the catheter. […] The serum concentrations of K-134 and cilostazol were determined by high-performance liquid chromatography (HPLC).

[5] = Plasma concentration in rat arteriovenous shunt model; type: in vivo; details: SD, n = 6
Source text: as §3

[6] = Electron spin resonance (ESR) radical scavenging; details: ESR experiments, data not shown
Source text: In the photothrombotic cerebral infarction model, photoactivation of rose bengal by illumination with green light results in reactive oxygen intermediates (predominantly singlet oxygen and superoxide). […] Therefore, we concluded that the observed inhibitory effects of K-134 on photothrombosis in this model are relevant to its antiplatelet activity but not radical scavenging activity.

PDE2 = tested on: PDE2; set-up: method as in PMID 10644042; details: read-out: IC50 toward PDE2; cited from earlier work
PDE3A = tested on: PDE3A; set-up: method as in PMID 10644042; details: read-out: IC50 toward PDE3A; cited from earlier work
PDE3B = tested on: PDE3B; set-up: method as in PMID 10644042; details: read-out: IC50 toward PDE3B; cited from earlier work
PDE4 = tested on: PDE4; set-up: method as in PMID 10644042; details: read-out: IC50 toward PDE4; cited from earlier work
PDE5 = tested on: PDE5; set-up: method as in PMID 10644042; details: read-out: IC50 toward PDE5; cited from earlier work
[7] = ADP 7.5 µM, n = 5, read-out: IC50, rat platelet aggregation induced by ADP
[8] = collagen 15 µg/mL, n = 5, read-out: IC50, rat platelet aggregation induced by collagen

Row | SMILES | bleeding in the cerebrum observed macroscopically [2] | IC50 (rat platelet aggregation; [7]) | IC50 (rat platelet aggregation; [8]) | Inhibition (%) of arteriovenous shunt thrombus formation ([4]; 10 mg/kg single oral dose) | Occluded/Total ([4]; 10 mg/kg single oral dose) | Occlusion (%) ([4]; 10 mg/kg single oral dose) | Inhibition (%) of arteriovenous shunt thrombus formation ([4]; 30 mg/kg single oral dose) | Occluded/Total ([4]; 30 mg/kg single oral dose) | Occlusion (%) ([4]; 30 mg/kg single oral dose) | ED50 [4] | scavenging activities against singlet oxygen and superoxide anion radical [6] | IC50 (PDE2) | IC50 (PDE3A) | IC50 (PDE3B) | IC50 (PDE4) | IC50 (PDE5) | other results
1 | O=C(NCCCOc1ccc2[nH]c(=O)ccc2c1)N(C1CC1)[C@@H]1CCCC[C@H]1O [K-134] | No bleeding | 3.2 µM | 2.5 µM | 64% | 4/12* | 33% | 64% | 4/12* | 33% | 11 mg/kg | did not show scavenging activities | > 300 µM | 0.1 µM | 0.28 µM | > 300 µM | 12.1 µM | MCA occlusion time ([1]; 10 mg/kg oral preadministration, mean ± SEM): 7.9 ± 1.1 min; MCA occlusion time ([1]; 30 mg/kg oral preadministration, mean ± SEM): 9.1 ± 1.6 min; infarct volume ([2]; 10 mg/kg oral, not significant): 92.0±14.7 mm^3; infarct volume ([2]; 30 mg/kg oral, significant): 62.1±12.9 mm^3; IC50 ([3]; ADP, read-out: IC50, mouse platelet aggregation induced by ADP): 6.7 µM; IC50 ([3]; collagen, read-out: IC50, mouse platelet aggregation induced by collagen): 5.5 µM; Inhibition (%) of arteriovenous shunt thrombus formation ([4]; 3 mg/kg single oral dose): 18%; Occluded/Total ([4]; 3 mg/kg single oral dose): 9/12; Occlusion (%) ([4]; 3 mg/kg single oral dose): 75%; Cmax ([5]; 10 mg/kg oral): 430 ± 80 nM
2 | O=C1CCc2cc(OCCCCc3nnnn3C3CCCCC3)ccc2N1 [cilostazol] | No bleeding | 83 µM | 42 µM | 37% | 7/12 | 58% | 64% | 4/12* | 33% | 18 mg/kg | did not show scavenging activities | 45.2 µM | 0.2 µM | 0.38 µM | 88 µM | 4.4 µM | MCA occlusion time ([1]; 300 mg/kg oral preadministration, not statistically significant): 6.9 ± 1.3 min; infarct volume ([2]; 300 mg/kg oral, not significant): 95.8±14.8 mm^3; Inhibition (%) of arteriovenous shunt thrombus formation ([4]; 100 mg/kg single oral dose): 73%; Occluded/Total ([4]; 100 mg/kg single oral dose): 3/12**; Occlusion (%) ([4]; 100 mg/kg single oral dose): 25%; Cmax ([5]; 30 mg/kg oral): 2080 ± 280 nM
